Where two headings read alike, the source gives them in different places.
How the values were obtained:
Format in all cases: cell-based
L929 cells = assay: Measurement of cytotoxicity using mouse tumor cell L929 (neutral red assay)
Procedure: [Procedure] The cytotoxicity action on tumor cell was measured by neutral red assay (the method described in the Journal of Tissue Culture Methodology vol.9, p.7 (1984) and Toxicology Letters, vol.24, p.119 (1985)). Concretely, L929 cells (5×10^4 cells/ml, 10% FCS/RPMI) were added to the wells of a 96 well ELISA plate at a rate of 100 μL each and cultured for a night, and the testing compounds of respective measurement concentrations were dissolved in DMSO solution and added to the above cells. The culture was continued for 3 days, and 2.0 μL of Neutral Red was added to attain the final concentration of 0.01%. The mixture was incubated for 1 hour at 37° C., the supernatant of the cell culture product was removed and the residue was washed twice with 200 μL of PBS to remove excess Neutral Red. Thereafter, the dye taken into the cell was extracted by adding 100 μL of 50% ethanol-1% acetic acid aqueous solution and the amount of the dye was determined by measuring the absorbance at 490 nm. The cytotoxicity was determined at each concentration of the test compound taking the cytotoxicity free from the drug as 100%. […] Two sets of measurement were performed for each test under the same condition and the average value was used as the test result.

[1] = tested on: IgG antibody production from human lymphocyte; assay: Human in vitro IgG antibody production (same lymphocyte culture, sandwich ELISA); details: for inhibition at 1 µM: Homo sapiens, Lymphocyte, test drug concentration 1 μM, IL-4 + IL-10 + anti-CD40 antibody, read-out: IgG production suppressing ratio (%); for IC50: IgG antibody production
Procedure: (§1) The concentrations of IgE and IgG antibodies were measured by the following method according to the method described in the Journal of Immunology vol.146, pp.1836-1842, 1991 and the Journal of Immunology vol. 147, pp.8-13, 1991.
(§2) Concretely, lymphocyte was separated from the peripheral venous blood of healthy person by density gradient centrifugation. The obtained lymphocyte was washed, suspended in a culture liquid (RPMI-1640 (product of Gibco Co.)+10% heat-inactivated FCS (product of Whittaker Co.)+100 μg/ml streptomycin+100 U/ml penicillin G+2 mM L-glutamine) and cultured for a week in the presence of interleukin 4 (IL-4, product of GENZYME Co.) (0.1 μg/ml), anti-CD40 antibody (antiCD40Aab, product of BIOSOURCE Co.), clone B-B20) (2 μg/ml) and interleukin 10 (IL-10, product of GENZYME Co.) (0.2 μg/ml) in the presence or absence of the compounds of the present invention described in the Tables 10 to 15 at various concentrations as test drugs.
(§3) The culture liquid was added to the culture system, the culture was continued for additional one week, and the concentrations of IgE and IgG antibodies in the supernatant were measured by sandwich ELISA method.
(§4) The measurement by ELISA method was carried out according to the known ELISA method by using rabbit anti-human IgE(ε) antibody (product of ICN Co.) as the primary antibody and biotin.anti-human IgE monoclonal antibody (G7-26, product of PharMingen Co.) as the secondary antibody for the measurement of IgE antibody concentration and anti-human IgG monoclonal antibody (G18-145, product of PharMingen Co.) as the primary antibody and biotin-donkey anti-human IgG antibody (H+L) (product of Jackson Co.) as the secondary antibody for the measurement of IgG antibody concentration, and using avidin-biotin-hourse radish peroxidase (ABC kit, product of Vector Lab.) as the enzyme and TMB (3,3′,5,5′-tetramethylbenzidine) microwell peroxidase substrate system (product of Kirkegaard & Perry Laboratories Inc.) as the substrate.
(§5) The value of IC50 and the suppressing ratio (%) at the test drug concentration of 1 μM were calculated based on the concentration attained in the absence of the compound of the present invention (reference: Ueshimna, et al. American Academy of Allergy & Immunology, 1995 Annual Meeting, Program No.818).

[2] = tested on: IgE antibody production from human lymphocyte; assay: Human in vitro IgE antibody production suppressing activity (lymphocyte culture with IL-4 + IL-10 + anti-CD40 antibody, sandwich ELISA); details: for IC50: IgE antibody production; for inhibition at 1 µM: test drug concentration 1 μM, IL-4 + IL-10 + anti-CD40 antibody, read-out: IgE production suppressing ratio (%)
Procedure: as §1, §2, §3, §4, §5

[3] = 72 h, cytotoxic activity against L929, neutral red assay, 3 days culture, read-out: LD50 (the source's name)
[4] = L929, 72 h, read-out: LD50 (μM)

Structure (SMILES)	CC50 (L929 cells; [3])	CC50 (L929 cells; [4])	inhibition at 1 µM [1]	IC50 [1]	IC50 [2]	inhibition at 1 µM [2]
O=C(CCCOc1ccc2cc(Oc3ccc(CC(=O)Nc4ccccc4C(=O)O)cc3)ccc2c1)Nc1ccccc1C(=O)O [compound 4]	0.375 µM	–	–	–	–	–
O=C(Cc1ccc(Oc2ccc3cc(OCC(=O)c4ccccc4)ccc3c2)cc1)Nc1ccccc1C(=O)O [compound 6]	–	2.4 µM	–	–	–	–
O=C(Cc1ccc(Oc2ccc(OCc3ccncc3)cc2)cc1)Nc1ccccc1C(=O)O [compound 37]	–	1.02 µM	–	–	–	–
O=C(Cc1ccc(Oc2ccc(OC3CCOCC3)cc2)cc1)Nc1ccccc1C(=O)O [compound 44]	–	1.16 µM	88.5%	0.404 µM	0.221 µM	100%
CC(=O)Nc1ccc(CCOc2ccc(Oc3ccc(CC(=O)Nc4ccccc4C(=O)O)cc3)cc2)cc1 [compound 45]	0.22 µM	–	-179%	0.631 µM	0.305 µM	99.4%
CN(C)CCOc1ccc(Oc2ccc(CC(=O)Nc3ccccc3C(=O)O)cc2)cc1 [compound 47]	0.2 µM	–	–	–	–	–
COC(=O)N1CCC[C@H]1COc1ccc(Oc2ccc(CC(=O)Nc3ccccc3C(=O)O)cc2)cc1 [compound 59]	–	2.4 µM	–	–	–	–
CC(=O)NC1(COc2ccc(Oc3ccc(CC(=O)Nc4ccccc4C(=O)O)cc3)cc2)CCCC1 [compound 73]	–	> 5 µM	–	–	–	–
O=C(Cc1ccc(Oc2ccc(OCC3(NC(=O)c4ccccc4)CCCC3)cc2)cc1)Nc1ccccc1C(=O)O [compound 74]	–	> 5 µM	–	–	–	–
COC(=O)N1CCC(Oc2ccc(Oc3ccc(CC(=O)Nc4ccccc4C(=O)O)cc3)cc2)CC1 [compound 79]	–	0.98 µM	92.4%	0.489 µM	0.04 µM	100%
O=C(Nc1ccccc1C(=O)O)c1ccc(Oc2ccc(OCCN3CCCCC3)cc2)cc1 [compound 93]	–	–	–	> 10 µM	0.738 µM	56.2%
O=C(Cc1ccc(Oc2ccc(OC3CCC(NC(=O)c4ccc(Cl)c(Cl)c4)CC3)cc2)cc1)Nc1ccccc1C(=O)O (stereo not drawn) [compound 100]	0.95 µM	–	100%	0.244 µM	0.028 µM	100%

Source: patent US6649656B1, “Anthranilic acid derivatives” (Teijin Limited, priority 1998, dated 2003)
